From patent EP0987275B1, “Molecules that home to a selected organ or tissue in vivo” (LA JOLLA CANCER RESEARCH FOUNDATION, priority 1995, dated 2008)
Several values for one entry are separate records, joined by “and”; a condition that tells them apart may be missing. Equal values may be shown once. Where no end group is shown, it is not given here.

Key:
[1] = test system: brain; assay: In vivo panning of phage peptide display libraries, brain as the selected organ (kidney control); design: species or system mice; details: phage recovered from brain; for (% PHAGE): % of the 73 clones sequenced; for # PHAGE DISPLAYING SAME A.A. SEQUENCE: second and third rounds of in vivo panning, 73 cloned phage sequenced
Protocol: Phage display libraries were constructed using the fuse 5 vector as described by Koivunen et al. (supra, 1995; see, also, Koivunen et al. Meth. Enzymol. 245:346-369 (1994b), which is incorporated herein by reference). Six libraries encoding peptides designated CX5C (SEQ ID NO: 36), CX6C (SEQ ID NO: 37), CX7C (SEQ ID NO: 38), CX9 (SEQ ID NO: 39), X2CX14CX2 (SEQ ID NO: 40) and X2CX18 (SEQ ID NO: 41) were prepared, where "C" indicates cysteine and "XN" indicates the given number of individually selected amino acids. These libraries can display cyclic peptides when at least two cysteine residues are present in the peptide.
Oligonucleotides were constructed such that "C" was encoded by the codon TGT and "XN" was encoded by NNK, where "N" is equal molar mixtures of A, C, G and T, and where "K" is equal molar mixtures of G and T. Thus, the peptide represented by CX5C (SEQ ID NO: 36) can be represented by an oligonucleotide having the sequence TGT(NNK)5TGT (SEQ ID NO: 42). Oligonucleotides were made double stranded by 3 cycles of PCR amplification, purified and ligated to the nucleic acid encoding the gene III protein in the fuse 5 vector such that, upon expression, the peptide is present as a fusion protein at the N-terminus of the gene III protein.
The vectors were transfected by electroporation into MC1061 cells. Bacteria were cultured for 24 hr in the presence of 20 µg/ml tetracycline, then phage were collected from the supernatant by precipitation twice using polyethylene glycol. Each library contained about 5 x 10^9 to 5 x 10^14 transducing units (TU; individual recombinant phage).
(§1) A mixture of phage libraries containing 1 x 10^14 TU was diluted in 200 µl DMEM and injected into the tail vein of anesthetized BALB\c mice (2 month old females; Jackson Laboratories; Bar Harbor ME); Avertin™ (0.015 ml/g) was used as anesthetic (see Pasqualini and Ruoslahti, supra, 1996). After 1-4 minutes, mice were snap frozen in liquid nitrogen. To recover the phage, carcasses were partially thawed at room temperature for 1 hr, organs were collected and weighed, then were ground in 1 ml DMEM-PI (DMEM containing protease inhibitors (PI); phenylmethylsulfonyl fluoride (PMSF; 1 mM), aprotinin (20 µg/ml), leupeptin (1 µg/ml)).
(§2) Organ samples were washed 3 times with ice cold DMEM-PI containing 1% bovine serum albumin (BSA), then directly incubated with 1 ml K91-kan bacteria for 1 hr. Ten ml NZY medium containing […] tetracycline (NZY/tet) was added to the bacterial culture, the mixture was incubated in a 37°C shaker for 1 hr, then 200 µl aliquots were plated in agar plates containing 40 µg/ml tetracycline (tet/agar).
(§3) Individual colonies containing phage recovered from brain or kidney were grown for 16 hr in 5 ml NZY/tet. The bacterial cultures obtained from the individual colonies were pooled and the phage were purified and re-injected into mice as described above for a second round of in vivo panning. A third round of panning also was performed. Phage DNA was purified from individual bacterial colonies obtained from the second and the third round of in vivo panning and the DNA sequences encoding the peptides expressed by selected phage were determined (see Koivunen et al., supra, 1994b).
Three rounds of in vivo panning in mice were performed. Kidney was used as a control organ. Mice were injected with two different mixtures of phage libraries. The first mixture contained libraries encoding CX9 (SEQ ID NO: 39), CX5C (SEQ ID NO: 36), CX6C (SEQ ID NO: 37) and CX7C (SEQ ID NO: 38) peptides (CX5-7/CX9 mixture; SEQ ID NOS: 36-39). The second mixture contained libraries encoding X2CX14CX2 (SEQ ID NO: 40) and X2CX18 (SEQ ID NO: 41) peptides (X2CX18/X2CX14CX2 mixture; SEQ ID NOS: 40 and 41).
The phage library mixtures were administered to mice via tail vein injection. Phage input was […] of the CX5-7/CX9 (SEQ ID NOS: 36-39) mixture or 1 x 10^14 TU of the X2CX18/X2CX14CX2 (SEQ ID NOS: 40 and 41) mixture. […]

[2] = test system: brain; assay: Specificity of brain homing of individually amplified phage (TU in brain vs kidney); type: in vivo, mice; details: individual phage, same input titer
Protocol: To determine the specificity of brain homing of the individual motifs identified, phage displaying the predominant motifs were amplified individually, diluted to the same input titer and administered to mice. Following administration, brain and kidney were removed and the number of TU of phage in each organ was determined. […] Specifically, the ratio of selective homing (brain:kidney) was about 8 for CNSRLHLRC (SEQ ID NO: 1) and for CLSSRLDAC (SEQ ID NO: 3), 4 for CENWWGDVC (SEQ ID NO: 2) and 9 for […] (SEQ ID NO: 16).

[3] = test system: Human 435 breast carcinoma cells; assay: In vivo targeting of phage expressing an RGD peptide to a breast tumor; design: species or system nude mice; details: for RGD phage as compared to unselected control phage accumulated in the tumor: human breast carcinoma tumors
Protocol: (§4) Human 435 breast carcinoma cells were inoculated into the mammary fat pad of nude mice. When the tumors attained a diameter of about 1 cm, phage expressing a specific RGD-containing peptide were administered to the tumor bearing mouse. Similar results to those discussed below also were obtained with nude mice bearing tumors formed by implantation of human melanoma C8161 cells or by implantation of mouse B16 melanoma cells.
(§5) 1 x 10^9 phage expressing the RGD-containing peptide, CDCRGDCFC (SEQ ID NO: 57; see, Koivunen et al., supra, 1995) or control (insertless) phage were injected intravenously (iv) into the mice and allowed to circulate for 4 min. The mice then were snap frozen while under anesthesia, and various organs, including tumor, brain and kidney, were removed and the phage present in the organs was quantitated (see Pasqualini and Ruoslahti, supra, 1996).

[4] = test system: kidney; assay: In vivo panning of phage peptide display libraries, kidney as the selected organ (brain control); design: species or system mice; details: phage recovered from kidney; for (% PHAGE): % of the 48 clones sequenced; for # PHAGE DISPLAYING SAME A.A. SEQUENCE: 48 cloned phage sequenced
Protocol: as §1, §2, §3
The same methodology used to isolate phage expressing brain homing peptides was used to isolate phage expressing peptides that home to kidney. In these experiments, brain was used as the control organ. A mixture of the CX5C (SEQ ID NO: 36) and the CX6C (SEQ ID NO: 37) libraries was administered as described above. Homing of phage to the kidney was obtained and an approximately 3x to 7x enrichment of phage homing to kidney was observed following a second round of in vivo panning.
(§6) The amino acid sequences were determined for the inserts in 48 cloned phage that homed to kidney. The peptides expressed by these phage were represented by two predominant sequences, CLPVASC (SEQ ID NO: 21; 46% of the clones sequenced) and CGAREMC (SEQ ID NO: 22; 17% of the clones; see Table 2). In addition, the peptide CKGRSSAC (SEQ ID NO: 23) appeared three times and three other peptides were present twice each.

[5] = test system: kidney; assay: Selective kidney homing of individual phage (kidney vs brain); type: in vivo, mice
Protocol: as §6

[6] = test system: melanoma; assay: Immunohistochemical staining (anti-M13) for phage localization in melanoma bearing mice; type: in vivo; details: 1 x 10^9 pfu phage iv, 4 min
Protocol: Localization of the phage expressing a tumor homing peptide in the mouse organs was examined by immunohistochemical staining of the tumor and various other tissues. 1 x 10^9 pfu of a control (insertless) phage or a phage expressing the tumor homing peptide, CLSGSLSC ([…]), were injected, iv, into tumor bearing mice and allowed to circulate for 4 min. The mouse then was perfused with DMEM and various organs, including the tumor were removed and fixed in Bouin's solution. Histologic sections were prepared and stained using anti-M13 (phage) antibodies (see Pasqualini and Ruoslahti, supra, 1996).

[7] = test system: B16B15b mouse melanoma cells; assay: In vivo panning in mice bearing an implanted mouse melanoma tumor; design: species or system nude mice; details: phage recovered from B16B15b tumors; 89 cloned phage sequenced
Protocol: Mice bearing a melanoma were produced by implantation of B16B15b mouse melanoma cells, which produce highly vascularized tumors. B16B15b mouse melanoma cells were injected subcutaneously into the mammary fat pad of nude mice (2 months old) and tumors were allowed to grow until the diameter was about 1 cm. In vivo panning was performed as disclosed above. Approximately 1 x 10^12 transducing units of phage expressing the CX5C (SEQ ID NO: 36), CX6C (SEQ ID NO: 37) or […] library were injected, iv, and allowed to circulate for 4 min. Mice then were snap frozen in liquid nitrogen while under anesthesia, tumor tissue and brain (control organ) were removed, and phage were isolated as described above. Three rounds of in vivo panning were performed.
The amino acid sequences were determined for the inserts in 89 cloned phage recovered from the B16B15b tumors. The peptides expressed by these phage were represented by two predominant sequences, CLSGSLSC (SEQ ID NO: 55; 52% of the clones sequenced) and WGTGLC (SEQ ID NO: 52; 25% of the clones; see Table 4).

[8] = test system: brain; assay: Homing of 125I-peptide/RBC complex to brain, with peptide competition; type: in vivo, mouse; details: 10 mM unlabeled peptide
Protocol: The synthetic cyclic CLSSRLDAC (SEQ ID NO: 3) peptide (1 mg) was labeled with iodine-125 using the Bolton and Hunter reagent (Amersham; Arlington Heights IL). Labeled peptide was purified by reverse phase HPLC on Sep-Pak™ cartridges (Waters, Millipore Corp.; Milford PA) and the ^125I-peptide (200 µg) was coupled to 1 ml glutaraldehyde-stabilized sheep RBC (Sigma Chemical Co.; St. Louis MO) according to the manufacturer's instructions.
Fifty µl ^125I-peptide/RBC (200,000 cpm), alone or with 10 mM of unlabeled CLSSRLDAC (SEQ ID NO: 3), which is a brain homing peptide, or CVRLNSLAC (SEQ ID NO: 43), which has no brain homing activity, was injected into the tail vein. After 2 min, each mouse was perfused through the heart with 50 ml DMEM and the brain and kidney were removed and assayed for radioactivity.

[9] = test system: Human 435 breast carcinoma cells; assay: In vivo panning in mice bearing a human breast carcinoma tumor; design: species or system nude mice; details: phage recovered from human breast cancer after third round, 14 cloned phage; for # clones: CX3CX3CX3C library
Protocol: Human 435 breast carcinoma cells (Price et al., Cancer Res. 50:717-721 (1990)) were inoculated into the mammary fat pad of nude mice. When the tumors attained a diameter of about 1 cm, either a phage targeting experiment was performed, in which phage expressing a specific peptide were administered to the tumor bearing mouse, or in vivo panning was performed.
The breast tumor bearing mice were injected with 1 x 10^9 phage expressing a library of CX3CX3CX3C (SEQ ID NO: 47) peptides, where X3 indicates three groups of independently selected, random amino acids. The phage were allowed to circulate for 4 min, then the mice were anesthetized, snap frozen in liquid nitrogen while under anesthesia, and the tumor was removed. Phage were isolated from the tumor and subjected to two additional rounds of in vivo panning.
Following the third round of panning, phage were quantitated and the peptide sequences expressed by 14 different cloned phage were determined. The 14 cloned phage expressed 4 different peptides (Table 3).

[10] = test system: Human 435 breast carcinoma cells; assay: Competition of RGD phage tumor homing by coinjected free peptide; type: in vivo, nude mice; details: coinjection of 500 µg free peptide
Protocol: as §4
as §5, with “CDCRGDCFC” left out

CNSRLHLRC (displayed on phage)
(% PHAGE) [1]: 21.9% | # PHAGE DISPLAYING SAME A.A. SEQUENCE [1]: 16 | ratio of selective homing (brain:kidney) [2]: about 8

CDCRGDCFC
phage detected in the breast tumor as compared to brain and kidney ([3]; 1 x 10^9 phage iv, 4 min): 2-3 times | immunohistochemical staining for the phage in the tumor ([3]; breast tumors): accumulation of the RGD phage in the blood vessels within the tumor | RGD phage as compared to unselected control phage accumulated in the tumor [3]: 80 fold | RGD phage as compared to unselected control phage accumulated in the tumor ([3]; listed as RGD phage): twenty- to eighty-fold | staining for the phage in brain or kidney (control organs) ([3]; mouse, in vivo): no staining

CKGRSSAC (cysteine pairing not given here; also: displayed on phage)
(% PHAGE) [4]: 6.2% | ratio of selective kidney:brain homing [5]: 2

CLSGSLSC (not fully specified; cysteine pairing not given here; also: displayed on phage)
immunostaining in the liver sinusoids and in spleen [6]: immunostaining was detected | immunostaining in the melanoma [6]: Strong immunostaining | staining in skin or in kidney samples [6]: Essentially no staining | # clones [7]: 46 | % of total phage [7]: 52%

WRCVLREGPAGGCAWFNRHRL (displayed on phage)
(% PHAGE) [1]: 13.7% | # PHAGE DISPLAYING SAME A.A. SEQUENCE [1]: 10 | ratio of selective homing (brain:kidney) [2]: ~9

CVRLNSLAC
effect of coadministered unlabeled peptide on brain homing of the CLSSRLDAC/RBC complex [8]: no effect | effect of coadministered unlabeled peptide on complex localizing to the kidney [8]: no effect

CLPVASC (displayed on phage)
(% PHAGE) [4]: 46% and 45.8% | # PHAGE DISPLAYING SAME A.A. SEQUENCE [4]: 22 | ratio of selective kidney:brain homing [5]: 7

CENWWGDVC (displayed on phage)
(% PHAGE) [1]: 19% and 19.2% | # PHAGE DISPLAYING SAME A.A. SEQUENCE [1]: 14 | ratio of selective homing (brain:kidney) [2]: ~4

CGEACGGQCALPC [breast tumor homing peptide]
% of total phage sequenced [9]: 28.6% | # clones [9]: 4

CGLMCQGACFDVC [peptide from phage recovered from human breast cancer]
% of total phage sequenced [9]: 7.1% | # clones [9]: 1

ACDCRGDCFCG
reduction of the amount of RGD phage in the tumor by coinjected free peptide [10]: about tenfold

CGAREMC (displayed on phage)
(% PHAGE) [4]: 17% and 16.7% | # PHAGE DISPLAYING SAME A.A. SEQUENCE [4]: 8 | ratio of selective kidney:brain homing [5]: 3

CGRECPRLCQSSC [breast tumor homing peptide]
% of total phage sequenced [9]: 42.9%

CNGRCVSGCAGRC [breast tumor homing peptide]
% of total phage sequenced [9]: 21.4% | # clones [9]: 3
